Data: ChEMBL document CHEMBL1140912, “Extra binding region induced by non-zinc chelating inhibitors into the S1' subsite of matrix metalloproteinase 8 (MMP-8)” (J Med Chem, 2009)

Assays:
Interstitial collagenase = biological target: T1, Interstitial collagenase (Homo sapiens, UniProt P03956); assay: Inhibition of human recombinant MMP1
T1 sequence (P03956 whole entry): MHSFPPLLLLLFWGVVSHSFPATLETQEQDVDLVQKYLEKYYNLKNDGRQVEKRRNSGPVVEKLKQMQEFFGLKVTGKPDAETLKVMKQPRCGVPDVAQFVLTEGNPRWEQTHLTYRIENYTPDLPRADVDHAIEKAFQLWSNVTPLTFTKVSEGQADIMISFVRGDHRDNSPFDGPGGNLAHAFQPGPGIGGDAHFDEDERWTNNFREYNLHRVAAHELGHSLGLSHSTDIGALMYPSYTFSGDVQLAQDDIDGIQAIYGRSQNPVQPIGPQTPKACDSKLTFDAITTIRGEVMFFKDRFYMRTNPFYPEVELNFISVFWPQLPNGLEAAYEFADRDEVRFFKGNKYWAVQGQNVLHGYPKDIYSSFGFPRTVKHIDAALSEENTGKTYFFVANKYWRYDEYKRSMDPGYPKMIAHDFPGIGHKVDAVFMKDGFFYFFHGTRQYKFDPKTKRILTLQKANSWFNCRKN

[1] = biological target: 72 kDa type IV collagenase (Homo sapiens, UniProt P08253); assay: Inhibition of human recombinant MMP2
Chain of 72 kDa type IV collagenase (P08253 whole entry): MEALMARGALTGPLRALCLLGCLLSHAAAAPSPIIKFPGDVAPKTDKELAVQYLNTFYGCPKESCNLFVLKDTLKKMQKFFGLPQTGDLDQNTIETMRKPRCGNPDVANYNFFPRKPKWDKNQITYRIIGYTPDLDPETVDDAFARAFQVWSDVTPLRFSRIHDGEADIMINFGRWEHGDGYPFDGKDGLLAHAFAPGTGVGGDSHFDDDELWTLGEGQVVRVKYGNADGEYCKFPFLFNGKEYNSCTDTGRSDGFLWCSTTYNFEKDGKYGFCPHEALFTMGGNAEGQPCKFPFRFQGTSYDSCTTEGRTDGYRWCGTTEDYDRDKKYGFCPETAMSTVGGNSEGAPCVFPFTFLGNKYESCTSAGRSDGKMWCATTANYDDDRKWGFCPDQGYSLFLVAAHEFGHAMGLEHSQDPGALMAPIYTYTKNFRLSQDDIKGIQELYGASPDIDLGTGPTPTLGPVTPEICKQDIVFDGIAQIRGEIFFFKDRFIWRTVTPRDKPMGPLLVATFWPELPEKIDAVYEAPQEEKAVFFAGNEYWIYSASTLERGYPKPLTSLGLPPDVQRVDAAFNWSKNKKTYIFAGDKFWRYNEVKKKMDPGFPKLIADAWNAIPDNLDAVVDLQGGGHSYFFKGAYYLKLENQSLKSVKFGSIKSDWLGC

[2] = biological target: Matrix metalloproteinase-14 (Homo sapiens, UniProt P50281); assay: Inhibition of human recombinant MMP14
[3] = biological target: Macrophage metalloelastase (Homo sapiens, UniProt P39900); assay: Inhibition of human recombinant MMP12
Chain of Macrophage metalloelastase (P39900 whole entry): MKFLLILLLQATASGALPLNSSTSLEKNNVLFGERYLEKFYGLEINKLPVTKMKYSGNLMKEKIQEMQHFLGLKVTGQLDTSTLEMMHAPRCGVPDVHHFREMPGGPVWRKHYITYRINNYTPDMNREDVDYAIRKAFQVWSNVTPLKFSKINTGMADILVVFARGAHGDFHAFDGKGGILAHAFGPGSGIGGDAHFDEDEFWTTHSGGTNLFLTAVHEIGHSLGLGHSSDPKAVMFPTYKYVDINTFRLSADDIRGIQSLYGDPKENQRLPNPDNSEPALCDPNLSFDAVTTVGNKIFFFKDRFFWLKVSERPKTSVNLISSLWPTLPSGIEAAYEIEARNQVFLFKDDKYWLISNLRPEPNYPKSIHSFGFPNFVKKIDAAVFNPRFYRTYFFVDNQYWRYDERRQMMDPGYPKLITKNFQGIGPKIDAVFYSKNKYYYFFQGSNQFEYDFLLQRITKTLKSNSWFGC

Stromelysin-1 = Stromelysin-1 (Homo sapiens, UniProt P08254); assay: Inhibition of human recombinant MMP3
Chain of Stromelysin-1 (P08254 whole entry): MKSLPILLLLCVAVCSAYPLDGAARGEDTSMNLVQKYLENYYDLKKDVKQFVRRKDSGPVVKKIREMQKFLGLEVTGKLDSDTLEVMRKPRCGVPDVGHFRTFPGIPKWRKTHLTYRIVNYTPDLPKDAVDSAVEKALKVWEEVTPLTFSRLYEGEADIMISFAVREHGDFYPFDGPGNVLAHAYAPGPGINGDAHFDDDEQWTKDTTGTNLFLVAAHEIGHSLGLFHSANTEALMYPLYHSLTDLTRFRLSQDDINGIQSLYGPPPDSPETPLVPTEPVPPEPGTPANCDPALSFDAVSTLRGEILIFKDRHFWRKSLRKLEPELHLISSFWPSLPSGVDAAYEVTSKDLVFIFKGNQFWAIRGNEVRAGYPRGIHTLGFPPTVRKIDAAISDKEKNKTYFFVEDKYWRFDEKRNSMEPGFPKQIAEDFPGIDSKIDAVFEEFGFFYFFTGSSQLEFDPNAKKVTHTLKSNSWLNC

Matrilysin = biological target: T2, Matrilysin (Homo sapiens, UniProt P09237); assay: Inhibition of human recombinant MMP7
T2 sequence (P09237 whole entry): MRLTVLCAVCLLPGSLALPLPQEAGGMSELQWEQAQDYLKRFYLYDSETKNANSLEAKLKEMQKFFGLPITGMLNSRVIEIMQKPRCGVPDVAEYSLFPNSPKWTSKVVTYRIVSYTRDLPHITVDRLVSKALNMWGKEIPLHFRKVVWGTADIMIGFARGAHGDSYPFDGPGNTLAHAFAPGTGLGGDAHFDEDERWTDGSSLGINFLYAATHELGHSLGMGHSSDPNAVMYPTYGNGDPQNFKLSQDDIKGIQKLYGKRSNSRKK

[4] = biological target: Matrix metalloproteinase-9 (Homo sapiens, UniProt P14780); assay: Inhibition of human recombinant MMP9
Chain of Matrix metalloproteinase-9 (P14780 whole entry): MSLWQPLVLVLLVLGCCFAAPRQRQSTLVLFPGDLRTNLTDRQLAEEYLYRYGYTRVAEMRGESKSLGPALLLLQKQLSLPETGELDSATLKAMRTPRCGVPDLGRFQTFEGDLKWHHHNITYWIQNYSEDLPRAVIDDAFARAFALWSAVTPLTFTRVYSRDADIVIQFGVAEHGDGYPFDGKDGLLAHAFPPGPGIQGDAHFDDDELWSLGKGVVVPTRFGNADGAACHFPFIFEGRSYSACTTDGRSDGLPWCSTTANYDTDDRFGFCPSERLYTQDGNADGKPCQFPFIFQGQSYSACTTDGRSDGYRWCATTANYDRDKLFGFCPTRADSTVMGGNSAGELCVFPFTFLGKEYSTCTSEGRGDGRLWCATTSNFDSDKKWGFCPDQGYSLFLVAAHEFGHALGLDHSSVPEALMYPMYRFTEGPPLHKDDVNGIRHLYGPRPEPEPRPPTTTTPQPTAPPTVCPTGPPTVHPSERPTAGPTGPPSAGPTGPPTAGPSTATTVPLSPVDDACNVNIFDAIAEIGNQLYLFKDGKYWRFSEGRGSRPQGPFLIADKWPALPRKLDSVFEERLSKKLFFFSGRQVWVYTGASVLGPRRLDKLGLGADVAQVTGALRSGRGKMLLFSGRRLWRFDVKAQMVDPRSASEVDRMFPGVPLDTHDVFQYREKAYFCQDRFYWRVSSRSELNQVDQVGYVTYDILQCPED

Collagenase 3 = Collagenase 3 (Homo sapiens, UniProt P45452); assay: Inhibition of human recombinant MMP13

With `NC(=O)CC1CCCc2sc3nc(C(=O)NCc4ccc5c(c4)NC(=O)CO5)[nH]c(=O)c3c21` (racemic) the IC50 (Interstitial collagenase) was over 10 µM, the IC50 [1] was over 10 µM and the IC50 [2] was over 10 µM. It also gave an IC50 [3] of over 10 µM, an IC50 (Stromelysin-1) of over 2.5 µM and an IC50 (Matrilysin) of over 10 µM. The IC50 [4] was over 10 µM and the IC50 (Collagenase 3) was under 0.025 µM.
